In US20050192279A1, “Pyridazinones as antagonists of alpha4 integrins” (priority 2004, published 2005):

How the values were obtained:
α4β1 = biological target: T1, α4β1 (Homo sapiens, UniProt P05556+P13612); assay: Ramos Cell Adhesion Assay (α4β1 Mediated Adhesion/VCAM-1); assay type: cell-based; conditions: Ramos cell adhesion to hVCAM-1; read-out: α4β1 IC50
T1 construct: Ramos Cell Adhesion Assay (α4β1 Mediated Adhesion/VCAM-1); endogenous in cells; host or cells: Ramos cells
Procedure, shortened: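 Plates coated overnight at 4° C with recombinant hVCAM-1 at 4.0 μg/mL, pH 9.0, then blocked in PBS/1% BSA. Calcein AM-labeled Ramos cells added with compounds and left to adhere 1 h at room temperature; after washing, cells lysed in 1 M Tris pH 8.0/1% SDS.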

human α4β7 integrin = biological target: T2, human α4β7 integrin (Homo sapiens, UniProt P13612+P26010); assay: α4β7-K562 Cell Adhesion Assay (α4β7 Mediated Adhesion/MAdCAM-1); assay type: cell-based; conditions: α4β7-K562 cell adhesion to hMAdCAM-1; read-out: α4β7 IC50
T2 construct: expressed in transfected cells; host or cells: K562 cells, stably transfected
T2 sequence (P13612 34-1032): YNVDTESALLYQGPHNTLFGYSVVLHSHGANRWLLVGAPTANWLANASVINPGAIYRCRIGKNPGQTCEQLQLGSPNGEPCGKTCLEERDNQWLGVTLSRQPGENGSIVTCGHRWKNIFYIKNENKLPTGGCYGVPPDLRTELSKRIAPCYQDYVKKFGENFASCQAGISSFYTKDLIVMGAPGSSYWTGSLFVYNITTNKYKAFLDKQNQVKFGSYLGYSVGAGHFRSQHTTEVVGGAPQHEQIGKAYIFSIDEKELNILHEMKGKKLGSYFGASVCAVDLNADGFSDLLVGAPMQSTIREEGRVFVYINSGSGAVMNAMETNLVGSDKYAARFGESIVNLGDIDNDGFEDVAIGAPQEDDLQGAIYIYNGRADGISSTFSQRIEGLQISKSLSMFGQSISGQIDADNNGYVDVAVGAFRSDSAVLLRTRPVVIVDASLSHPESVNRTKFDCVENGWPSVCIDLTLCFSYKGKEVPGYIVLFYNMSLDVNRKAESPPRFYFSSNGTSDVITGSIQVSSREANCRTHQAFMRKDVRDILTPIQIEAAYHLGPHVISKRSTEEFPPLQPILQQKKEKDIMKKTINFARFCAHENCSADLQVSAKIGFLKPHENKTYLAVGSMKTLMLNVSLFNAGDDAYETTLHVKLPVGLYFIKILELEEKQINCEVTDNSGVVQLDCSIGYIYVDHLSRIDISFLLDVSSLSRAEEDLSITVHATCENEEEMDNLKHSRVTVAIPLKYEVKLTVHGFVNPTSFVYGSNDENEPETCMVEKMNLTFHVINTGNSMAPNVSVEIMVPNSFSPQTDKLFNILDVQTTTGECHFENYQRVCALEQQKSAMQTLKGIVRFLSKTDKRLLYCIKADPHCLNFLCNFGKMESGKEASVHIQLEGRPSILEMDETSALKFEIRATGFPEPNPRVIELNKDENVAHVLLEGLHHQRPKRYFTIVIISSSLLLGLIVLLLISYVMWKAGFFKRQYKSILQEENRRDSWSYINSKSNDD
T2 sequence (P26010 20-798): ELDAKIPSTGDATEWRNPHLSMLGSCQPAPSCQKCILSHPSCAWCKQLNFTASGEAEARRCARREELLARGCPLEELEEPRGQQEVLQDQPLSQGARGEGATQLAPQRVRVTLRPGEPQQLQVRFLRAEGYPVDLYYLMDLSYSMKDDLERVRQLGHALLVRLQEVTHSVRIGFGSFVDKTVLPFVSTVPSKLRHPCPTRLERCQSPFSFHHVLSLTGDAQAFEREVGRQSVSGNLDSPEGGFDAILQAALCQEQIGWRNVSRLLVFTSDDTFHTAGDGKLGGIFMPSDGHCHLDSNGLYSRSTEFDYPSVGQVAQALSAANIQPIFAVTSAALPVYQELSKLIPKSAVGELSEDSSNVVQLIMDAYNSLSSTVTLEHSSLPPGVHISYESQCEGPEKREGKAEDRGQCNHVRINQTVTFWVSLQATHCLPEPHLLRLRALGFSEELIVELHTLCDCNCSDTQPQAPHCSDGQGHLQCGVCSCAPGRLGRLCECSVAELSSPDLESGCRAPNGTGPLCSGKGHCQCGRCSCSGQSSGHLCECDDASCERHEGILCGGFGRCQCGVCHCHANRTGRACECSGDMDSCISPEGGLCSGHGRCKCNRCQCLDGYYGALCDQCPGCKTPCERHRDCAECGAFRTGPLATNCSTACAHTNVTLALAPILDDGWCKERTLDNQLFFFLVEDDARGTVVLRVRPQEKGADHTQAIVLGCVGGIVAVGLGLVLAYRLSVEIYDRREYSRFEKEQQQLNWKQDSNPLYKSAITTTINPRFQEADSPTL
Procedure, shortened: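 Anti-FLAG plates coated 1 h at 4° C with FLAG-hMAdCAM-1 in PBS pH 7.4, 1% BSA, 1 mM Mn2+. Stably transfected K562 cells expressing human α4β7, labelled with CFDA-SE, adhered with compound 1 h at room temperature. After four washes, bound cells lysed in 0.1 M NaOH for fluorescence read-out.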

T1 sequence (P05556 21-798, one chain of several): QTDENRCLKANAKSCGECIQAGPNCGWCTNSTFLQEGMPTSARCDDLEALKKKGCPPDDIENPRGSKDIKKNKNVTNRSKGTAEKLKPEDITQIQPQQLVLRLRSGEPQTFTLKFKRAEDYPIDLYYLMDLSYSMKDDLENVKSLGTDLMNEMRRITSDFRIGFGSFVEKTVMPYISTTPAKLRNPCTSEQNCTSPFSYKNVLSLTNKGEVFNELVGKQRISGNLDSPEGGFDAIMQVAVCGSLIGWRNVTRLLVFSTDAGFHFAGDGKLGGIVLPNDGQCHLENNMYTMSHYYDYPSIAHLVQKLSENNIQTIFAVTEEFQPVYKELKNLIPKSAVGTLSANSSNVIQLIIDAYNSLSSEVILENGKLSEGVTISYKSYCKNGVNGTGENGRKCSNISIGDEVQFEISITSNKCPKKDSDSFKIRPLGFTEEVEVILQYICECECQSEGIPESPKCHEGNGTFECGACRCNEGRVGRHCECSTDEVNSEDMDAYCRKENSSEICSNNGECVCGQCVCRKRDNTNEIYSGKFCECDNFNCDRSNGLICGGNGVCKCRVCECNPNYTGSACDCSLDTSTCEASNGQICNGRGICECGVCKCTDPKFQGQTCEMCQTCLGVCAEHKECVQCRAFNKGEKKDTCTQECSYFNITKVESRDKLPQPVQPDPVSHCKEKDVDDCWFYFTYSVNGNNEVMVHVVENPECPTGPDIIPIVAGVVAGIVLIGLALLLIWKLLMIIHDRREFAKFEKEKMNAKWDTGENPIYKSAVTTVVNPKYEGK

| Structure (SMILES) | IC50 (α4β1) [nM] | IC50 (human α4β7 integrin) [nM] |
| --- | --- | --- |
| COc1cnn(C)c(=O)c1-c1ccc(C[C@H](NC(=O)C2(O)CC2)C(=O)O)cc1 [Cpd 217] | > 5000 | 640 |
| COc1cnn(-c2ccccc2)c(=O)c1-c1ccc(C[C@H](NC(=O)c2c(Cl)cccc2Cl)C(=O)O)cc1 [Cpd 56] | 3860 | 18 |
| CNC(C(=O)NC(Cc1ccc(-c2c(OC)cnn(C)c2=O)cc1)C(=O)O)C(C)C (single isomer, unassigned) [Cpd 123] | > 5000 | 118 |
| COc1cnn(CCO)c(=O)c1-c1ccc(C[C@@H](CO)NC(=O)c2c(Cl)cccc2Cl)cc1 [Cpd 194] | > 5000 | 1220 |
| COc1cnn(C)c(=O)c1-c1ccc(CC(NC(=O)C(C(C)C)n2c(C)cc(C(=O)c3ccccc3)c2C)C(=O)O)cc1 (stereo not drawn) [Cpd 211, 2-[2-(3-Benzoyl-2,5-dimethyl-pyrrol-1-yl)-3-methyl-butyrylamino]-[4-(5-methoxy-2-methyl-3-oxo-2,3-dihydro-pyridazin-4-yl)-phenyl]-propionic acid] | > 5000 | 529 |
| COc1cnn(C)c(=O)c1-c1ccc(CC(NC(=O)c2c(Cl)cccc2Cl)C(=O)OCCO)cc1 (stereo not drawn) [Cpd 97, 2-(2,6-Dichloro-benzoylamino)-3-[4-(5-methoxy-2-methyl-3-oxo-2,3-dihydro-pyridazin-4-yl)-phenyl]-propionic acid 2-hydroxy-ethyl ester] | 3240 | 58 |
| COc1cnn(C)c(=O)c1-c1ccc(CC(NC(=O)C(C(C)C)n2c(C)ccc2C)C(=O)O)cc1 (stereo not drawn) [Cpd 214] | 1070 | 23 |
| CNC(C)(C)C(=O)N[C@@H](Cc1ccc(-c2c(OC)cnn(C)c2=O)cc1)C(=O)O [Cpd 221] | > 5000 | 380 |
| Cn1ncc(OCc2ccccc2)c(-c2ccc(C[C@H](NC(=O)c3c(Cl)cccc3Cl)C(=O)O)cc2)c1=O [Cpd 52] | 663 | 17 |
| COc1cnn(C)c(=O)c1-c1ccc(C[C@H](NC(=O)OCc2ccccc2)C(=O)O)cc1 [Cpd 172, (S)-2-Benzyloxycarbonylamino-3-[4-(5-methoxy-2-methyl-3-oxo-2,3-dihydro-pyridazin-4-yl)-phenyl]-propionic acid] | > 5000 | 570 |
| Nc1cnn(-c2ccccc2)c(=O)c1-c1ccc(C[C@H](NC(=O)c2c(Cl)cccc2Cl)C(=O)O)cc1 [Cpd 197] | > 1000 | 1320 |
| COc1cnn(C)c(=O)c1-c1ccc(C[C@H](NC(=O)C(C(C)C)n2c(C)ccc2C)C(=O)O)cc1 (mixture of isomers) [Cpd 33, 2-[2(2,5-Dimethyl-pyrrol-1-yl)-3-methyl-butyrylamino]-3-[4-(5-methoxy-2-methyl-3-oxo-2,3-dihydro-pyridazin-4-yl)-phenyl]-propionic acid] | 2400 | 7 |
| COc1cnn(C)c(=O)c1-c1ccc(C[C@H](NC(=O)C2CCN(C(=O)OC(C)(C)C)CC2)C(=O)O)cc1 [Cpd 202] | > 5000 | 1480 |
| CCn1ncc(N2CCOCC2)c(-c2ccc(C[C@H](NC(=O)c3c(Cl)cccc3Cl)C(=O)O)cc2)c1=O [Cpd 29] | > 1000 | 6 |
| COc1cnn(C)c(=O)c1-c1ccc(C[C@H](NC(=O)OCc2cccs2)C(=O)O)cc1 [Cpd 201] | > 5000 | 1440 |
| COc1cnn(C)c(=O)c1-c1ccc(C[C@H](NC(=O)c2cnoc2C)C(=O)O)cc1 [Cpd 147] | > 5000 | 249 |
| CN[C@H](C(=O)N[C@@H](Cc1ccc(-c2c(OC)cnn(CCN3CCOCC3)c2=O)cc1)C(=O)O)[C@@H](C)OCc1ccccc1 [Cpd 128] | 1490 | 138 |
| COc1cnn(C)c(=O)c1-c1ccc(C[C@H](NC(=O)C23CCC(CC2)CN3C(=O)OC(C)(C)C)C(=O)O)cc1 [Cpd 126] | 2460 | 127 |
| COc1cnn(C)c(=O)c1-c1ccc(CC(NC(=O)C(C(C)C)n2c(C)ccc2C)C(=O)O)cc1 (stereo not drawn) [Cpd 215] | > 5000 | 305 |
| COc1cnn(C)c(=O)c1-c1ccc(C[C@H](NC(=O)C2(C(=O)OC(C)(C)C)CCOCC2)C(=O)O)cc1 [Cpd 186] | 1530 | 842 |
| COc1cnn(C)c(=O)c1-c1ccc(C[C@H](NC(=O)[C@H](O)C(C)C)C(=O)O)cc1 [Cpd 129] | > 1000 | 141 |
| Cc1ccc(Oc2cnn(C(C)(C)C)c(=O)c2-c2ccc(C[C@H](NC(=O)c3c(Cl)cccc3Cl)C(=O)O)cc2)cc1 [Cpd 196, (S)-3-[4-(2-tert-Butyl-3-oxo-5-p-tolyloxy-2,3-dihydro-pyridazin-4-yl)-phenyl]-2-(2,6-dichloro-benzoylamino)-propionic acid] | > 5000 | 1290 |

Continued, values first:

| IC50 (α4β1) [nM] | IC50 (human α4β7 integrin) [nM] | Structure (SMILES) |
| --- | --- | --- |
| 306 | 71 | COc1cnn(C)c(=O)c1-c1ccc(CC(NC(=O)C(NC(=O)Cc2ccsc2)C(C)C)C(=O)O)cc1 (stereo not drawn) [Cpd 107, 3-[4-(5-Methoxy-2-methyl-3-oxo-2,3-dihydro-pyridazin-4-yl)-phenyl]-2-[3-methyl-2-(2-thiophen-3-yl-acetylamino)-butyrylamino]-propionic acid] |
| 629 | 67 | COc1cnn(C)c(=O)c1-c1ccc(C[C@H](NC(=O)[C@@H]2C3CCC(CC3)N2C(=O)OCc2ccccc2)C(=O)O)cc1 [Cpd 103] |
| 240 | 36 | COc1cnn(C)c(=O)c1-c1ccc(C[C@H](NC(=O)C(NS(=O)(=O)c2ccccc2[N+](=O)[O-])C(C)C)C(=O)O)cc1 (mixture of isomers) [Cpd 77] |
| 63.5 | 94 | COc1cnn(C)c(=O)c1-c1ccc(C[C@H](NC(=O)C23CCC(CC2)CN3C(=O)CCc2ccco2)C(=O)O)cc1 [Cpd 115] |
| 142 | 118 | COc1cnn(C)c(=O)c1-c1ccc(C[C@H](NC(=O)C23CCC(CC2)CN3C(=O)CCc2cnc[nH]2)C(=O)O)cc1 [Cpd 122] |
| 113 | 16 | Cn1ncc(N2CCCC2)c(-c2ccc(C[C@H](NC(=O)c3c(Cl)cccc3Cl)C(=O)O)cc2)c1=O [Cpd 51] |
| 155 | 20 | Cn1ncc(OC2CCCC2)c(-c2ccc(C[C@H](NC(=O)c3c(Cl)cccc3Cl)C(=O)O)cc2)c1=O [Cpd 60] |
| 656 | 97 | COc1cnn(C)c(=O)c1-c1ccc(C[C@H](NC(=O)C2(N)CCOCC2)C(=O)O)cc1 [Cpd 116] |
| 269 | 17 | O=C(N[C@@H](Cc1ccc(-c2c(OC3CCC3)cnn(CCO)c2=O)cc1)C(=O)O)c1c(Cl)cccc1Cl [Cpd 53] |
| 473 | 24 | CN[C@H](C(=O)N[C@@H](Cc1ccc(-c2c(OC)cnn(C)c2=O)cc1)C(=O)O)[C@@H](C)OCc1ccccc1 [Cpd 68] |
| 23 | 2 | COc1cnn(C)c(=O)c1-c1ccc(C[C@H](NC(=O)c2c(Cl)c[n+]([O-])cc2Cl)C(=O)O)cc1 [Cpd 9] |
